Assay results from ChEMBL document CHEMBL1201862, “PubChem BioAssay data set” (2004).
Several values for one entry are separate records, joined by “and”; a condition that tells them apart may be missing. Identical values can stand only once. Activity calls are given as the source filed them.

Assays:
[1] = cytotoxicity in HEK-293T cells, dose response, cytotoxicity control for TCR NF-kB inhibitor project, luminescence, T-cell screen hits (AID 489026); type: functional, cell-based;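 note: cells exposed to compound about 14 hours before the viability readout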
[2] = target: Beta-2 adrenergic receptor (Homo sapiens, UniProt P07550); test: beta2AR agonists driving receptor internalization, dose response, cell-based, FAP fluorogen, flow cytometry, cherry pick 1 (AID 588763); type: functional
[3] = target: T1, Calpain-2 catalytic subunit (Sus scrofa, UniProt P43367); test: pig calpain II inhibitor potency, dose response, biochemical, fluorogenic peptide substrate (AID 1420); type: functional
T1 sequence (P43367 whole entry): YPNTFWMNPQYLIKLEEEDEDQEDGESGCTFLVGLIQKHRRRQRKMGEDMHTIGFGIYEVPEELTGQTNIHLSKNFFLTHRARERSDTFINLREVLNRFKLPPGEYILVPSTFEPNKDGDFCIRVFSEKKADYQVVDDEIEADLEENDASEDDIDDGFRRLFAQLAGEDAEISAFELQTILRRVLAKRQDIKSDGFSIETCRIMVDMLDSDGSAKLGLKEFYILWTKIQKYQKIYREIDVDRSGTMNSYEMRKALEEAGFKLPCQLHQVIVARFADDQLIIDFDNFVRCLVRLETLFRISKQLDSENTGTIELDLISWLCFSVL

[4] = HEp-2 cell cytotoxicity, dose response, cytotoxicity control for RSV inhibitor project, HTS (AID 2410); type: functional; conditions: human respiratory syncytial virus
[5] = target: T2, DNA repair protein RAD52 homolog (Homo sapiens, UniProt P43351); type: functional, biochemical
T2 sequence (P43351 whole entry): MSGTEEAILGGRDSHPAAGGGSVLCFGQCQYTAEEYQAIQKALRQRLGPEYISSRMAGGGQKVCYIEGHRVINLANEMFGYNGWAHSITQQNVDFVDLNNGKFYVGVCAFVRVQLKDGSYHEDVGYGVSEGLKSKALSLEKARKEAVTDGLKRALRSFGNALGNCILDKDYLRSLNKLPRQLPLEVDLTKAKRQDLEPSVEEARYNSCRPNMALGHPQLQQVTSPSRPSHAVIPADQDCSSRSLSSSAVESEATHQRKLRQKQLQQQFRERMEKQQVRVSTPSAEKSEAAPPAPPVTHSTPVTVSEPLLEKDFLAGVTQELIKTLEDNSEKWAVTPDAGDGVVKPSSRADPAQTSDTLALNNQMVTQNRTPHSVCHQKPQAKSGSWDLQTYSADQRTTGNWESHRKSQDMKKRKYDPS

[6] = target: T3, High affinity choline transporter 1 (Homo sapiens, UniProt Q9GZV3); test: CHT inhibitors, dose response, cell-based, 10-point CRC, membrane potential dye (AID 588401); type: functional;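 note: membrane potential dye fluorescence of choline-evoked depolarization via CHT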
T3 sequence (Q9GZV3 whole entry): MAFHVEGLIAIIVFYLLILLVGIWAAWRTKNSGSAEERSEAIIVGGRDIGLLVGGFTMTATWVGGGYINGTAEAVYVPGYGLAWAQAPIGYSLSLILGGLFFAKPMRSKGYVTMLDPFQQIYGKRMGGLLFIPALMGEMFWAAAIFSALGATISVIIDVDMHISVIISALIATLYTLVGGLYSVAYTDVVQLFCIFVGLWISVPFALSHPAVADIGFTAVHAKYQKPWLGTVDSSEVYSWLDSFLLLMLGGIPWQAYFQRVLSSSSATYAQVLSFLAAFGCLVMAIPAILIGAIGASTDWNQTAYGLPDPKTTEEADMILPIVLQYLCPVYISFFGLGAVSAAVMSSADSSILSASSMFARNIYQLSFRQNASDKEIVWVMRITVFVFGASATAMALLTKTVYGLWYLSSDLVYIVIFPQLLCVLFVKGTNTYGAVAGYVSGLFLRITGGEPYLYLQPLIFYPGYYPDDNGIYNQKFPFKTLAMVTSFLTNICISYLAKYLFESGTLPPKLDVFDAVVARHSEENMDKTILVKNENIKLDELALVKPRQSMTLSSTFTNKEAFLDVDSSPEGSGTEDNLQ

[7] = target: T3, High affinity choline transporter 1; test: CHT inhibitors, dose response, cell-based, 5-point CRC, membrane potential dye (AID 504840); type: functional
[8] = off-target signal loss in HeLa-CEM21 co-culture – HeLa F-luc CTL cells, cherry-picked, counter-screen for HIV-1 Env fusion inhibitor project, dose response (AID 652040); type: functional, cell-based;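 note: potency for signal decrease marking cytotoxic or nonspecific inhibition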
[9] = ZM109 Env clade C HIV-1 fusion inhibitors, dose response, HeLa effector, CEM target cells, luciferase, cherry-pick (AID 652058); type: functional, cell-based
[10] = inhibitors of HIV Env-driven cell fusion, dose response, cherry-pick (AID 652057); type: functional, cell-based

Chain of Beta-2 adrenergic receptor (P07550 whole entry): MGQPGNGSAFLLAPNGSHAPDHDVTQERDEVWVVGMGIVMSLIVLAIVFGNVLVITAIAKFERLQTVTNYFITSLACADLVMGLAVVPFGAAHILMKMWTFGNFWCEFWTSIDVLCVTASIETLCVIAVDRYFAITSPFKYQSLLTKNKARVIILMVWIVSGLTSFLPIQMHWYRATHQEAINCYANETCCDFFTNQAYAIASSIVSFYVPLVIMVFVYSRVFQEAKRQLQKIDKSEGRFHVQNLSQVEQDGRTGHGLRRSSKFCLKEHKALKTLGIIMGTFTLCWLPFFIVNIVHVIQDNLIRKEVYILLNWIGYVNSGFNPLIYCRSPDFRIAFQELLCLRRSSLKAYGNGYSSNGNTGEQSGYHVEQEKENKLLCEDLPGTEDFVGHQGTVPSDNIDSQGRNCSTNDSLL

With `COc1cc([C@@H]2c3cc4c(cc3[C@@H](OC)[C@H]3COC(=O)[C@H]23)OCO4)cc(OC)c1O` the IC50 [1] was > 80 µM (inactive).
For `COCCCNc1ncnc2c1sc1nc(-c3ccco3)c3c(c12)CC(C)(C)OC3`, the EC50 [2] was 0.0417 µM (active).
For `CC(=O)Nc1cc(C(=O)OC(C(=O)c2ccccc2)c2ccccc2)ccc1C` (stereo unspecified), the EC50 [2] was 0.402 µM (active) and the IC50 [3] was > 50 µM (not active).
With `O=C(Nc1cccc(-c2nc3ccccc3s2)c1)c1cccs1` the CC50 [4] was 15.4 µM (active) and the EC50 [2] was 16.9 µM (inactive).
For `CN(C)CCCNc1nc2cc(-c3cccc(C(F)(F)F)c3)sc2c(=O)n1C`, the AC50 [5] was 7.9 µM (active).
With `CCC(=O)c1ccc(OCC(=O)N2CCN(CC(=O)Nc3ccc(C)cc3)CC2)cc1` the EC50 [2] was 0.0646 µM (active).
For `Cc1ccccc1NC(=O)c1ccc(C)c(S(=O)(=O)NCc2cccnc2)c1`, the IC50 [6] was 5.77 µM (active) and the IC50 [7] was 9.77 µM (active).
In the case of `COC(=O)C1(C(=O)OC)C[C@H](c2ccc(OC)cc2)N(Cc2ccccc2OC)[C@@H]1c1cccs1`, the AC50 [8] is reported as 4.05 µM (active) and 2.64 µM (active), the AC50 [9] is reported as 4.03 µM (active) and 2.19 µM (active) and the AC50 [10] is reported as 2.05 µM (active) and 2.55 µM (active).
In the case of `NC1(N2SC(S)=C3CCCC=C32)CCCCC1`, the AC50 [5] is reported as 12.1 µM (active).
In the case of `Oc1cc(-c2ccccc2)nc2cc(F)ccc12`, the IC50 [1] is reported as > 80 µM (inactive).
For `C=CC[N@@+]12CC[C@]34c5ccccc5N5/C=C6\C7N(/C=C(\C53)[C@@H](C[C@@H]41)/C(=C/CO)C2)c1ccccc1[C@@]71CC[N@@+]2(CC=C)C/C(=C\CO)[C@@H]6C[C@@H]12` (stereo partly specified), the AC50 [5] was 16.5 µM (active).
